Measurements from US12195427B2, “MASP-2 inhibitors and methods of use” (priority 2018, dated 2025).

Biological target: MASP-2 CCP2-SP (Homo sapiens (Human), UniProt O00187)
Experiment: MASP-2 co-crystallization, X-ray crystallography and structure analysis (H-bonds, van der Waals contacts);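 for Ligand-pharmacophore element distance, pharmacophore element C2: distance from averaged pharmacophore element to bound ligand; missing value means element absent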;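 for Ligand-pharmacophore element distance, pharmacophore element C3: distance from averaged pharmacophore element to bound ligand; missing value means element absent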;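 for Ligand-pharmacophore element distance, pharmacophore element C4: distance from averaged pharmacophore element to bound ligand; missing value means element absent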;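 for Ligand-pharmacophore element distance, pharmacophore element C5: distance from averaged pharmacophore element to bound ligand; missing value means element absent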
Design: van der Waals contact distance, MASP-2 HIS 483 atom CD2 / van der Waals contact distance, MASP-2 HIS 483 atom NE2 / van der Waals contact distance, SER 654 C to compound atom / van der Waals contact distance, SER 654 O to compound atom / van der Waals contact distance, TRP 655 C to compound atom / van der Waals contact distance, MASP-2 GLY 528 atom CA / van der Waals contact distance TRP 655 atom CZ3 / van der Waals contact distance TRP 655 atom N / van der Waals contact distance TRP 655 atom CE3 / van der Waals contact distance GLY 656 atom C / van der Waals contact distance GLY 656 atom CA / van der Waals contact distance GLY 656 atom O / van der Waals contact distance, MASP-2 TYR 607 atom CD1 / van der Waals contact distance, MASP-2 PRO 606 atom O / d(C3,CA1) / d(CA1,N1)2 / d(H4,O1) / d(H4,O2) / d(O1,O2) / d(CA1,O2) / d(CA6,O1) / d(CA6,O2) / d(CA1,C5) / d(O2,H3) / d(N2,C2) / d(CA5,N2) / d(N2,C4) / d(N2,C6) / d(N2,CA3) / d(N2,O3) / d(O4,H2): unit not given beside the values
Conditions: for Ligand-pharmacophore element distance, pharmacophore element C2 / Ligand-pharmacophore element distance, pharmacophore element C3 / Ligand-pharmacophore element distance, pharmacophore element C4 / Ligand-pharmacophore element distance, pharmacophore element C5 / Ligand-pharmacophore element distance, pharmacophore element C6 / Ligand-pharmacophore element distance, pharmacophore element C7 / Ligand-pharmacophore element distance, pharmacophore element CA1 / Ligand-pharmacophore element distance, pharmacophore element CA2 / Ligand-pharmacophore element distance, pharmacophore element CA3 / Ligand-pharmacophore element distance, pharmacophore element CA4 / Ligand-pharmacophore element distance, pharmacophore element CA5 / Ligand-pharmacophore element distance, pharmacophore element CA6: Table A4-1; for d(CA1,C5) / d(CA1,O1) / d(CA1,O2) / d(CA1,O4) / d(H4,O1) / d(H4,O2) / d(O1,O2) / d(O4,H2): Table A5-1 pharmacophore: distance between elements, S2/S1 region; for d(N2,C2) / d(N2,CA2) / d(O2,H3) / d(O2,N2): Table A5-2 pharmacophore distance, S3/S4 region; for a(C5, CA1, O1) / a(CA1, O1, O2) / a(CA1, O4, H2) / a(O1, CA1, O4) / a(O1, O2, H4): Table A6-1 pharmacophore angle; for a(O1, O2, H3) / a(O1, O2, N2) / a(O2, N2, C2) / a(O2, N2, CA2): Table A6-2 pharmacophore angle; for Pharmacophore torsion angle a(C5, CA1, O1, H4) / Pharmacophore torsion angle a(H4, O1, O2, H3) / Pharmacophore torsion angle a(H4, O1, O2, N2) / Pharmacophore torsion angle a(O1, H4, O2, CA1) / Pharmacophore torsion angle a(O1, O2, N2, C2): Table A7-1; for Pharmacophore torsion angle a(C5, CA1, O1, H4) / Pharmacophore torsion angle a(H4, O1, O2, H3) / Pharmacophore torsion angle a(H4, O1, O2, N2) / Pharmacophore torsion angle a(O1, H4, O2, CA1) / Pharmacophore torsion angle a(O1, O2, N2, C2) / Pharmacophore torsion angle a(O1, O2, N2, CA2): between pharmacophore elements of the bound compound; for Pharmacophore torsion angle a(O1, O2, N2, CA2): Table A7-2
Excerpt: This example illustrates the preparation of recombinant MASP-2 protein, based on UniProt O00187, human mannan-binding lectin serine protease 2. Expression constructs for human MASP-2 CCP2-SP and CCP2-SP-6HIS were generated for recombinant expression in E. coli cells.
Typically, crystallization hits were obtained by screening against […] 96-well crystallization reagent kits (GRAS6, GRAS2, Hampton Research; MORPHEUS, Molecular Dimensions; Wizard 1&2 Cryo, Rigaku Reagents) and crystal growth was inspected by optical microscopy. Crystals were used directly or further optimized for X-ray diffraction. Crystals were captured with cryogenic loops and dipped into liquid nitrogen directly or cryoprotected with a 20% glycerol in crystallization formulation before flash-cooling in liquid nitrogen.
Thereafter crystals are transferred once or twice for soaking within the crystallization solution containing the MASP-2 inhibitor.
Crystals were diffracted with synchrotron X-rays of […] and X-ray diffraction datasets were collected at beamlines SSRL BL9-2, BL14-1, BL12-2 as well as ALS sector 5 using Dectris Pilatus and Eiger detectors. Structures were determined by molecular replacement using portions of the structure 1Q3X as search models and partially refined with Buster 2.10.2 or Refmac 5.8. […] When multiple ligand poses were observed, for instance arising from multiple molecules in the asymmetric unit or refined dual poses within the same molecule, only one pose was selected and analyzed.
LigPlot+ calls these ‘nonbonded contacts’ or ‘hydrophobic contacts’. Despite the name, there are atom pairings that include possible H-bonds. Thus, in some instances, the Table A2 also contains H-bond interactions.

Chain of MASP-2 CCP2-SP (O00187 445-686): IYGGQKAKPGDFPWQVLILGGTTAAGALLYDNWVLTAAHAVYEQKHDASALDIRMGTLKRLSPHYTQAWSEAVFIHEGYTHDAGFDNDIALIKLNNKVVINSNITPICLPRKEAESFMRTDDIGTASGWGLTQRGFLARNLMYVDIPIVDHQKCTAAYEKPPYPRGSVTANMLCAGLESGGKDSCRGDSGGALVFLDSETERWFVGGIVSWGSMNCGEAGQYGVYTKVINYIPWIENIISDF
Chain of MASP-2 CCP2-SP (O00187 364-432 partner): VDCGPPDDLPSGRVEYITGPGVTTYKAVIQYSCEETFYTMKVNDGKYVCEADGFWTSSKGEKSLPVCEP

Row | SMILES | Ligand-pharmacophore element distance, pharmacophore element C2 | Ligand-pharmacophore element distance, pharmacophore element C3 | Ligand-pharmacophore element distance, pharmacophore element C4 | Ligand-pharmacophore element distance, pharmacophore element C5 | Ligand-pharmacophore element distance, pharmacophore element C6 | Ligand-pharmacophore element distance, pharmacophore element C7 | Ligand-pharmacophore element distance, pharmacophore element CA1 | Ligand-pharmacophore element distance, pharmacophore element CA2 | Ligand-pharmacophore element distance, pharmacophore element CA3 | Ligand-pharmacophore element distance, pharmacophore element CA4 | Ligand-pharmacophore element distance, pharmacophore element CA5 | Ligand-pharmacophore element distance, pharmacophore element CA6 | d(CA1,C5) | d(CA1,O1) | d(CA1,O4) | d(H4,O1) | d(O4,H2) | d(N2,C2) | d(N2,CA2) | a(C5, CA1, O1) | also measured
1 | C[C@H](NC(=O)[C@H]1C[C@@H](c2ccccc2)CCN1)C(=O)NCc1cc(Cl)ccc1O.Cl [1078_3] | 0.43 | 0 | 0 | 0.45 | 0 | 0 | 1.53 | 0.27 | 0 | 0 | 0 | 0 | 3.13 | 4.44 | 2.75 | 3.13 | 0.98 | 1.45 | 5.70 | 162.08 | d(CA1,O2): 4.54; d(H4,O2): 3.61; d(O1,O2): 3.17; d(O2,H3): 2.05; d(O2,N2): 2.79; a(CA1, O1, O2): 112.44; a(CA1, O4, H2): 128.44; a(O1, CA1, O4): 67.41; a(O1, O2, H4): 124.44; a(O1, O2, H3): 132.07; a(O1, O2, N2): 145.54; a(O2, N2, C2): 126.01; a(O2, N2, CA2): 154.83; Pharmacophore torsion angle a(C5, CA1, O1, H4): −5.62; Pharmacophore torsion angle a(H4, O1, O2, H3): −160.53; Pharmacophore torsion angle a(H4, O1, O2, N2): −166.69; Pharmacophore torsion angle a(O1, H4, O2, CA1): −82.33; Pharmacophore torsion angle a(O1, O2, N2, C2): 132.95; Pharmacophore torsion angle a(O1, O2, N2, CA2): 140.71
2 | C[C@H](NC(=O)[C@H]1C[C@@H](c2ccccc2)CCN1)C(=O)NCc1cc(Cl)ccc1O.Cl [1078_4] | 0.67 | 0 | 0 | 0.52 | 0 | 0 | 1.62 | 0.59 | 0 | 0 | 0 | 0 | 3.13 | 4.56 | 2.76 | 2.27 | 0.97 | 1.51 | 5.66 | 161.60 | d(CA1,O2): 4.61; d(H4,O2): 2.64; d(O1,O2): 3.39; d(O2,H3): 2.72; d(O2,N2): 2.70; a(CA1, O1, O2): 112.48; a(CA1, O4, H2): 128.57; a(O1, CA1, O4): 65.56; a(O1, O2, H4): 93.17; a(O1, O2, H3): 141.42; a(O1, O2, N2): 146.07; a(O2, N2, C2): 126.96; a(O2, N2, CA2): 155.54; Pharmacophore torsion angle a(C5, CA1, O1, H4): 32.90; Pharmacophore torsion angle a(H4, O1, O2, H3): −123.98; Pharmacophore torsion angle a(H4, O1, O2, N2): −113.42; Pharmacophore torsion angle a(O1, H4, O2, CA1): −58.33; Pharmacophore torsion angle a(O1, O2, N2, C2): 124.98; Pharmacophore torsion angle a(O1, O2, N2, CA2): 136.93
3 | C[C@H](NC(=O)[C@H]1C[C@@H](c2ccccc2)CCN1)C(=O)NCc1cc(Cl)ccc1O.Cl [1078_5] | 0.71 | 0 | 0 | 0.42 | 0 | 0 | 1.76 | 0.6 | 0 | 0 | 0 | 0 | 3.12 | 4.48 | 2.72 | 2.40 | 0.98 | 1.45 | 5.65 | 164.79 | d(CA1,O2): 4.88; d(H4,O2): 2.46; d(O1,O2): 3.41; d(O2,H3): 3.24; d(O2,N2): 2.95; a(CA1, O1, O2): 117.54; a(CA1, O4, H2): 131.80; a(O1, CA1, O4): 55.67; a(O1, O2, H4): 90.82; a(O1, O2, H3): 138.56; a(O1, O2, N2): 141.15; a(O2, N2, C2): 114.27; a(O2, N2, CA2): 151.79; Pharmacophore torsion angle a(C5, CA1, O1, H4): 21.83; Pharmacophore torsion angle a(H4, O1, O2, H3): −119.72; Pharmacophore torsion angle a(H4, O1, O2, N2): −115.76; Pharmacophore torsion angle a(O1, H4, O2, CA1): −52.04; Pharmacophore torsion angle a(O1, O2, N2, C2): 148.01; Pharmacophore torsion angle a(O1, O2, N2, CA2): 149.21
4 | C[C@H](NC(=O)[C@H]1C[C@@H](c2ccccc2)CCN1)C(=O)NCc1cc(Cl)ccc1O.Cl [1078_6] | 1.09 | 0 | 0 | 0.48 | 0 | 0 | 1.31 | 0.65 | 0 | 0 | 0 | 0 | 3.11 | 5.90 | 2.75 | 2.75 | 0.98 | 1.49 | 5.49 | 152.72 | a(CA1, O4, H2): 126.69; a(O1, CA1, O4): 67.49; Pharmacophore torsion angle a(C5, CA1, O1, H4): −22.50
